Target: T1, HCV NS3 helicase NS3h_1b(con1) (Hepatitis C virus genotype 1b, UniProt Q9WMX2)
T1 construct: truncated C-terminally His-tagged NS3 proteins lacking the N-terminal protease, called NS3h; His-tag (C); made in house
Test: MBHA screen of NCI mechanistic set library at 20 μM (percent inhibition, compound interference)
Format: biochemical
Conditions: compounds at 20 μM; for Inh. (%) (Inhibition): calculated from Equation 1
Summary of the method: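 Molecular beacon-based DNA unwinding assay; compounds screened at 20 μM in triplicate, with DMSO-only negative and 500 nM dT20 positive controls. Fluorescence (ex 643/em 670 nm) was read before and 30 min after adding ATP to 1 mM. Percent inhibition came from the change relative to DMSO controls; interference from pre-ATP fluorescence versus DMSO controls.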

[1] = MBHA with DNA substrate, assay interference calculated with Equation 2
[2] = assay interference calculated with Equation 2 (fluorescence vs DMSO-only controls before ATP)

T1 sequence (Q9WMX2 1192-1657): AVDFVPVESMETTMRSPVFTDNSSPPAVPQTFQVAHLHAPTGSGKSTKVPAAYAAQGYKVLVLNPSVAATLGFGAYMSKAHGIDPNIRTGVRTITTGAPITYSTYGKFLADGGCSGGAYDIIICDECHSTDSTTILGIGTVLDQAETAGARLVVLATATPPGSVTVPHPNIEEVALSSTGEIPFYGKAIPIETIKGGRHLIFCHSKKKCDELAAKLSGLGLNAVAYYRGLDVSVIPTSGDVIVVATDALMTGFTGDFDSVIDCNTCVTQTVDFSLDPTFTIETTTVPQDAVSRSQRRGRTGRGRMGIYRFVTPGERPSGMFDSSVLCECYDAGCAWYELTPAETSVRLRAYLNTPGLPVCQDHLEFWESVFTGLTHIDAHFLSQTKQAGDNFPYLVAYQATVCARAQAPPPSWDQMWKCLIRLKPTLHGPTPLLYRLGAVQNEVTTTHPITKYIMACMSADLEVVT

CCOC(=O)CCn1ncc(Cl)c(Cl)c1=O [Compound 634471]
Int.* (Ratio) (Interference) [1]: 1.06 Ratio
Inh. (%) (Inhibition) (MBHA with DNA substrate): 2.3%

COC(=O)C1=CC(=O)C(C(=O)Nc2ccc(OC)cc2)C(c2ccccc2)O1 (stereo not drawn) [Compound 634473]
Int.* (Ratio) (Interference) [1]: 1.01 Ratio
Inh. (%) (Inhibition) (MBHA with DNA substrate): 4.2%

CCc1cccc(CC)c1NC(=O)C(C#N)C1=C(Cl)C(=O)c2ccccc2C1=O (stereo not drawn) [Compound 634503]
Inh. (%) (Inhibition) (MBHA with a DNA substrate): −31.9%
Int.* (Ratio) (Interference) [2]: 0.93 Ratio

Cn1c(=O)c2nc3sc4c(n3c2n(C)c1=O)C(=O)c1ccccc1C4=O [Compound 634568]
Int.* (Ratio) (Interference) [1]: 0.90 Ratio
Inh. (%) (Inhibition) (MBHA with DNA substrate): −14.8%

O=C1C=CC(CC(=O)c2ccc3ccccc3c2)O1 (stereo not drawn) [Compound 634650]
Inh. (%) (Inhibition) (MBHA with a DNA substrate): −4.4%
Int.* (Ratio) (Interference) [2]: 1.12 Ratio

CC(=O)/C(=C\c1cccc([N+](=O)[O-])c1)C(=O)Nc1ccccc1C [Compound 634658]
Int.* (Ratio) (Interference) [1]: 0.85 Ratio
Inh. (%) (Inhibition) (MBHA with DNA substrate): 15.7%

O=S1(=O)OCCOS(=O)(=O)C1Cc1ccccc1 [Compound 634863]
Int.* (Ratio) (Interference) [1]: 0.99 Ratio
Inh. (%) (Inhibition) (MBHA with DNA substrate): −18.2%

[O-][S+]1c2ccccc2N=C(c2cccc3ccccc23)CC1c1cccc2ccccc12 (stereo not drawn) [Compound 634926]
Int.* (Ratio) (Interference) [1]: 0.92 Ratio
Inh. (%) (Inhibition) (MBHA with DNA substrate): −14.5%

CC1=C(C(=O)NCc2ccccc2)C(c2ccccc2O)C(C(=O)NCc2ccccc2)=C(C)N1 [Compound 634928]
Inh. (%) (Inhibition) (MBHA with a DNA substrate): 6.8%
Int.* (Ratio) (Interference) [2]: 0.97 Ratio

C/C(NNC(=O)c1ccccc1O)=C1\C=Nc2ccccc2S1 [Compound 635121]
Int.* (Ratio) (Interference) [1]: 0.92 Ratio
Inh. (%) (Inhibition) (MBHA with DNA substrate): 14.5%

COC(=O)c1[nH]c(=S)[nH]c(=O)c1-c1ccc(Cl)cc1 [Compound 635140]
Int.* (Ratio) (Interference) [1]: 1.04 Ratio
Inh. (%) (Inhibition) (MBHA with DNA substrate): 4.6%

O=C(c1ccccc1)C1OC12C(=O)Nc1c(Cl)cc(Cl)cc12 (stereo not drawn) [Compound 635306]
Inh. (%) (Inhibition) (MBHA with a DNA substrate): −6.8%
Int.* (Ratio) (Interference) [2]: 0.96 Ratio

O=C(c1ccccc1)C(c1ccccc1)C1(O)C(=O)Nc2c(Cl)cc(Cl)cc21 (stereo not drawn) [Compound 635312]
Int.* (Ratio) (Interference) [1]: 0.93 Ratio
Inh. (%) (Inhibition) (MBHA with DNA substrate): −18.1%

Cc1c(Cl)ccc2c1NC(=O)C2(O)C(C(=O)c1ccccc1)c1ccccc1 (stereo not drawn) [Compound 635321]
Int.* (Ratio) (Interference) [1]: 1.01 Ratio
Inh. (%) (Inhibition) (MBHA with DNA substrate): 5.1%

O=C(CC1(O)C(=O)Nc2c(Cl)cc(Cl)cc21)c1ccc([N+](=O)[O-])cc1 (stereo not drawn) [Compound 635326]
Int.* (Ratio) (Interference) [1]: 1.11 Ratio
Inh. (%) (Inhibition) (MBHA with DNA substrate): 5.9%

O=C(CC1(O)C(=O)Nc2c(Cl)cc(Cl)cc21)c1cccc2ccccc12 (stereo not drawn) [Compound 635328]
Int.* (Ratio) (Interference) [1]: 0.99 Ratio
Inh. (%) (Inhibition) (MBHA with DNA substrate): 2.5%

CN1CCN(CCSC2Cc3cc(Cl)ccc3Sc3ccccc32)CC1 (stereo not drawn) [Compound 635366]
Int.* (Ratio) (Interference) [1]: 1.05 Ratio
Inh. (%) (Inhibition) (MBHA with DNA substrate): 25.5%

Cc1cc(Cl)cc2c1NC(=O)C2(O)C(C(=O)c1ccccc1)c1ccccc1 (stereo not drawn) [Compound 635435]
Inh. (%) (Inhibition) (MBHA with a DNA substrate): 6.9%
Int.* (Ratio) (Interference) [2]: 0.96 Ratio

O=C(CC1(O)C(=O)Nc2c(Cl)ccc(Cl)c21)c1ccc(Cl)cc1Cl (stereo not drawn) [Compound 635436]
Int.* (Ratio) (Interference) [1]: 0.89 Ratio
Inh. (%) (Inhibition) (MBHA with DNA substrate): 15.6%

O=C(CC1(O)C(=O)Nc2c(Cl)ccc(Cl)c21)c1ccc(Cl)cc1 (stereo not drawn) [Compound 635437]
Int.* (Ratio) (Interference) [1]: 0.92 Ratio
Inh. (%) (Inhibition) (MBHA with DNA substrate): 0.1%

O=C(CC1(O)C(=O)Nc2c(Cl)cc(Cl)cc21)c1cccc([N+](=O)[O-])c1 (stereo not drawn) [Compound 635438]
Inh. (%) (Inhibition) (MBHA with a DNA substrate): −23.8%
Int.* (Ratio) (Interference) [2]: 1.02 Ratio

CC(=O)/C(C)=N/NC(=O)c1ccccc1O [Compound 635441]
Int.* (Ratio) (Interference) [1]: 0.92 Ratio
Inh. (%) (Inhibition) (MBHA with DNA substrate): 16.7%

C/C(=N\NC(=S)N(C)C)c1ccccn1.[Cu][Br] [Compound 635448]
Int.* (Ratio) (Interference) [1]: 0.93 Ratio
Inh. (%) (Inhibition) (MBHA with DNA substrate): 0.8%

Cc1c(C(=O)C/C(=N/NC(=O)CC#N)C(N)=O)[n+](=O)c2ccccc2n1[O-] [Compound 635542]
Int.* (Ratio) (Interference) [1]: 0.91 Ratio
Inh. (%) (Inhibition) (MBHA with DNA substrate): −12.7%

Cc1c(C(=O)C/C(=N\O)C(=O)Nc2cc(Cl)c(Cl)cc2Cl)[n+](=O)c2ccccc2n1[O-] [Compound 635544]
Inh. (%) (Inhibition) (MBHA with a DNA substrate): −21.9%
Int.* (Ratio) (Interference) [2]: 0.82 Ratio

O=[N+]([O-])c1cc(-c2nc(=S)[nH][nH]2)ccc1O [Compound 635563]
Inh. (%) (Inhibition) (MBHA with a DNA substrate): −6.8%
Int.* (Ratio) (Interference) [2]: 0.92 Ratio

Cc1ccccc1OCC(COC(=O)Nc1ccccc1)OC(=O)Nc1ccccc1 (stereo not drawn) [Compound 635824]
Int.* (Ratio) (Interference) [1]: 0.91 Ratio
Inh. (%) (Inhibition) (MBHA with DNA substrate): 13.5%

COC(=O)C(=O)C(C(=O)Nc1cccc(C)c1C)C1Sc2ccccc2NC1=O (stereo not drawn) [Compound 635833]
Int.* (Ratio) (Interference) [1]: 0.93 Ratio
Inh. (%) (Inhibition) (MBHA with DNA substrate): −7.3%

CC1=NC(C(C)C)C(=O)O1 (stereo not drawn) [Compound 635968]
Inh. (%) (Inhibition) (MBHA with a DNA substrate): 9.0%
Int.* (Ratio) (Interference) [2]: 0.97 Ratio

CC(C)(C)c1ccc(OC2CCO2)cc1 (stereo not drawn) [Compound 635975]
Int.* (Ratio) (Interference) [1]: 0.97 Ratio
Inh. (%) (Inhibition) (MBHA with DNA substrate): −2.4%

CC1CCCC(C(=O)/C(=C/c2cccc(Cl)c2)C(=O)C(=O)O)C1 (stereo not drawn) [Compound 636084]
Int.* (Ratio) (Interference) [1]: 1.01 Ratio
Inh. (%) (Inhibition) (MBHA with DNA substrate): −8.2%

Cc1ccccc1NC(=O)C(=O)C(C#N)c1ccccc1C (stereo not drawn) [Compound 636132]
Int.* (Ratio) (Interference) [1]: 0.90 Ratio
Inh. (%) (Inhibition) (MBHA with DNA substrate): 4.4%

O=C(/C=C/c1c(O)ccc2ccccc12)c1cccc(O)c1 [Compound 636786]
Inh. (%) (Inhibition) (MBHA with a DNA substrate): 8.8%
Int.* (Ratio) (Interference) [2]: 0.91 Ratio

COc1ccc(C2=Nc3ccccc3SC(C)C2)cc1 (stereo not drawn) [Compound 636817]
Inh. (%) (Inhibition) (MBHA with a DNA substrate): −30.3%
Int.* (Ratio) (Interference) [2]: 1.07 Ratio

NC(=Nc1nc(-c2ccccn2)cc2ccccc12)c1ccccn1 [Compound 637578]
Inh. (%) (Inhibition) (MBHA with a DNA substrate): 7.9%
Int.* (Ratio) (Interference) [2]: 0.97 Ratio

CCOc1ccccc1NC(=O)CC1Sc2ccccc2NC1=O (stereo not drawn) [Compound 637680]
Int.* (Ratio) (Interference) [1]: 0.91 Ratio
Inh. (%) (Inhibition) (MBHA with DNA substrate): 21.2%

O=C1C=C(Nc2cccnc2)c2ccccc2C1=O [Compound 637729]
Inh. (%) (Inhibition) (MBHA with a DNA substrate): −3.8%
Int.* (Ratio) (Interference) [2]: 0.97 Ratio

O=C1C=C(NCCc2ccccc2)c2ccccc2C1=O [Compound 637731]
Inh. (%) (Inhibition) (MBHA with a DNA substrate): −5.3%
Int.* (Ratio) (Interference) [2]: 1.07 Ratio

CC(=O)SC(SC(C)=O)SC(C)=O [Compound 637833]
Int.* (Ratio) (Interference) [1]: 0.80 Ratio
Inh. (%) (Inhibition) (MBHA with DNA substrate): −17.2%

N#CCCN(c1ccc(C=O)cc1)S(=O)(=O)c1ccccc1 [Compound 637914]
Int.* (Ratio) (Interference) [1]: 1.01 Ratio
Inh. (%) (Inhibition) (MBHA with DNA substrate): −11.0%

N#CCCN(CCC#N)c1ccc(/C=C2/N=C(c3cc([N+](=O)[O-])ccc3Cl)OC2=O)cc1 [Compound 637916]
Int.* (Ratio) (Interference) [1]: 0.97 Ratio
Inh. (%) (Inhibition) (MBHA with DNA substrate): 1.1%

CCN(CC)CCNc1ccc2nc(C)n3c4ccc(OC)cc4c(=O)c1c23.Cl [Compound 637993]
Int.* (Ratio) (Interference) [1]: 0.77 Ratio
Inh. (%) (Inhibition) (MBHA with DNA substrate): 37.7%

O=S(=O)(O)c1cc(N=Nc2cc(S(=O)(=O)O)c3cccnc3c2O)ccc1/C=C/c1ccc(N=Nc2cc(S(=O)(=O)O)c3cccnc3c2O)cc1S(=O)(=O)O [Compound 638352]
Int.* (Ratio) (Interference) [1]: 0.89 Ratio
Inh. (%) (Inhibition) (MBHA with DNA substrate): 56.2%

COc1ccc2ccccc2c1C1OC(=O)c2ccccc21 (stereo not drawn) [Compound 638504]
Int.* (Ratio) (Interference) [1]: 0.90 Ratio
Inh. (%) (Inhibition) (MBHA with DNA substrate): −2.7%

O=C1/C(=C\c2ccccc2)CN(C(=O)/C=C/c2ccccc2)C/C1=C\c1ccccc1 [Compound 638634]
Inh. (%) (Inhibition) (MBHA with a DNA substrate): −20.4%
Int.* (Ratio) (Interference) [2]: 0.86 Ratio

Cl.O=C1/C(=C\c2ccc(Cl)c(Cl)c2)CN(C(=O)CCN2CCOCC2)C/C1=C\c1ccc(Cl)c(Cl)c1 [Compound 638646]
Inh. (%) (Inhibition) (MBHA with a DNA substrate): −3.1%
Int.* (Ratio) (Interference) [2]: 0.76 Ratio

CCOC(=O)Nc1nc2ccc(Cn3cccc3)cc2[nH]1 [Compound 639754]
Int.* (Ratio) (Interference) [1]: 1.14 Ratio
Inh. (%) (Inhibition) (MBHA with DNA substrate): −18.3%

Nc1ccccc1C(=O)NC(=O)Nc1ccc(Oc2ncc(Br)cn2)c(Cl)c1 [Compound 639828]
Int.* (Ratio) (Interference) [1]: 1.05 Ratio
Inh. (%) (Inhibition) (MBHA with DNA substrate): 23.0%

— patent publication US9464064B2, “HCV helicase inhibitors and methods of use thereof” (University of Kansas, priority 2011, dated 2016)
